Key:
K-562 cells [1] = experiment: Apoptosis detection test (TUNEL); type: cell-based, human; settings: 30 μM, 48 hours
Procedure: TUNEL test was used to detect any DNA fragmentation to determine if cell enters apoptosis process.
A total of 10 mL cell solution at the concentration of 1×10^6K-562 cells per mL was cultured with 10 cm cell culture dishes in an incubator supplied with 5% CO2 at 37° C. for 30 minutes so that cells could adapt to the environment. Tellimagrandin II solutions of different concentrations were added by order so that the final concentrations are 0, 10, 20, 30, 40 and 50 μM respectively. The solution was placed in incubator with 5% CO2 at 37° C. for 48 hours before being centrifuged at 3,500 rpm at 4° C. for 5 minutes. After removing the supernatant, the cells were rinsed by PBS once. A total of 1 mL 1% Trioxane (diluted from 10% Trioxane solution with PBS) was added and the solution was left to react at room temperature for 30 minutes to one hour. Then, the solution was centrifuged at 3,500 rpm at 4° C. for 5 minutes. After removing the supernatant, 70% ethanol was added and the solution was placed at −20° C. for 16-18 hours for cell fixation.
After cell fixation, the solution was centrifuged at 400 rpm at 4° C. for 10 minutes before removing the supernatant. […] Finally, 1 mL PBS was used to resuspend the cells before BD FACS can was used to detect the fluorescent signal and the quantitative results are in FIG. 15. […]

[2] = system: Heme oxygenase-1 (HO-1) in RAW264.7 cells; experiment: Western blot analysis of Heme oxygenase-1 (HO-1); type: cell-based, mouse; settings: 25 or 50 μM with LPS, 24 hours
Procedure: The murine macrophage RAW264.7 cells were plated in 6 cm cell dishes at a seeding density of 5×10^6 cells/mL and incubated overnight. After overnight incubation, cells were treated with different concentrations of Tellimagrandin II (10, 25 and 50 μM) and LPS and incubated for 24 hours. Cells were washed twice with PBS, scraped and lysed on ice in RIPA buffer, and proteins were obtained. Heme oxygenase-1 expression was analyzed by Western blotting of the whole cell lysates. […] In FIG. 12, the first bar represents the control group, the second bar represents the test group with LPS only and the third, the fourth and fifth bars represent the test groups with 10, 25 and 50 […] Tellimagrandin II (N=3, Mean±SD).

DPPH scavenging assay = experiment: DPPH scavenging assay
Procedure: Test reagents, natural extracts and Vitamin C (ascorbic acid) were dissolved in methanol to make a stock solution 10×. Vitamin C was used as the positive control. 120 μM DPPH solution was prepared. Taken 20 μL of stock reagents, natural extracts and Vitamin C on a 96-well microplate, and methanol was added to make up to the total volume of 100 μL. Control was 100 μL methanol. Each sample was mixed with 100 μL DPPH solution and incubated in the dark for 40 minutes. DPPH level of each well was evaluated by detecting the optical density of each well at 517 nm and the results were shown in Table 5.

K-562 cells [3] = experiment: ROS test (DCF-DA); type: cell-based, human; settings: 40 μM; 2 hours
Procedure: A radical specific fluorescent dye, 2′,7′-dichlorofluorescein (DCF-DA) was used to detect H2O2/NO-based radicals or O2— in cells respectively.
A total of 3 mL cell solution at the concentration of 1×10^6 K-562 cells per mL was cultured with 6 cm cell culture plates in an incubator supplied with 5% CO2 at 37° C. for 30 minutes so that cells could adapt to the environment. Tellimagrandin II solutions of different concentrations were added by order so that the final concentrations are 0, 30, 40 and 50 μM respectively. The solution was placed in incubator with 5% CO2 at 37° C. for 2 hours before being centrifuged at 3,500 rpm at 4° C. for 5 minutes and then being rinsed by PBS once. 2′,7′-dichlorofluorescein (DCF-DA) was added before the solution was put into dark incubator for 45 minutes and then rinsed by PBS once again. Finally, 1 mL PBS was used to resuspend the cells before BD FACScan was used to detect the fluorescent signal.

K-562 cells [4] = experiment: Cell cycle analyses by flow cytometry; type: cell-based, human; settings: 0-50 μM
Procedure: K-562 cells were plated in 15 cm dish at a density of 5×10^5 cells/mL (15 mL) and incubated at 37° C. with 5% CO2 for 16˜18 hours. Cells were collected and centrifuged at 700 rpm for 3 minutes at room temperature, and resuspended in culture medium containing 0.04% fetal bovine serum and 8 mM L-glutamine. Then, cells were incubated at 37° C. with 5% CO2 for 16˜18 hours.
Collected above cells and plated in 3 cm dishes at an initial density of 5×10^5 cells/mL (3 mL). Cells were treated with Tellimagrandin II to final concentrations of 0, 10, 20, 30, 40 and 50 μM, and then incubated at 37° C. with 5% CO2 for 12 and 24 hours.
Cells were centrifuged at a speed of 700 rpm for 5 min at 4° C. and washed once with PBS. Cells were fixed by drop-wise addition of 70% ethanol into the cell suspension. After 16˜18 hours, the ethanol-suspended cells were centrifuged at a speed of […] for 5 minutes at 4° C. and the ethanol decanted thoroughly. Cells were resuspended in PBS containing RNase A (10 μg/mL) and 1% Triton X-100 and incubated at 37° C. in a 5% CO2 incubator for 30 minutes to 1 hour. For propidium iodide (PI) staining, cells were centrifuged at 3,500 rpm for 5 minutes at room temperature and resuspended in 600 μL PBS. 25 μL of PI (20 μg/mL) solution was added to the mixture and incubated at room temperature in the dark for 1 hour. […]

## O=C(OC1O[C@@H]2COC(=O)c3cc(O)c(O)c(O)c3-c3c(cc(O)c(O)c3O)C(=O)O[C@H]2[C@H](OC(=O)c2cc(O)c(O)c(O)c2)[C@H]1OC(=O)c1cc(O)c(O)c(O)c1)c1cc(O)c(O)c(O)c1 (some centres unmarked) [Tellimagrandin II]
K-562 cells [1]
  DNA fragmentation, TUNEL fluorescent signal: fluorescent signals were detected
[2]
  Heme oxygenase-1 expression: significant increases
DPPH scavenging assay; 20 μg/mL, +FeCl2 (50 μM)
  DPPH free-radical scavenging activity: 56.61 ± 4.05%
DPPH scavenging assay; 20 μg/mL, −FeCl2
  DPPH free-radical scavenging activity: 80.52 ± 0.4%
DPPH scavenging assay; 40 μg/mL, +FeCl2 (50 μM)
  DPPH free-radical scavenging activity: 57.43 ± 2.49%
DPPH scavenging assay; 40 μg/mL, −FeCl2
  DPPH free-radical scavenging activity: 79.47 ± 0.2%
K-562 cells [3]
  ROS in K-562 cells: observed to increase
K-562 cells [4]
  percentage of the sub-G1 and G2/M-phase cells: increased in Tellimagrandin II treatments dose-dependently
